Measured values: PubChem BioAssay (NCI)
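48-hour exposure; five concentrations; linearly interpolated endpoints. Abbreviation: GI50, concentration required for 50% inhibition of growth. The concentration for full growth arrest is given as TGI.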

Legend:
Test in all cases: NCI anticancer screen, dose series, 48 h; in the data active = GI50 below about 0.43 µM; inactive = the rest
[1] = system: HS 578T breast
[2] = system: BT-549 breast
[3] = system: EKVX NSCLC
[4] = system: SF-295 CNS
[5] = system: SW-620 colon
[6] = system: OVCAR-3 ovarian
[7] = system: CAKI-1 renal
[8] = system: RPMI-8226 leukemia
[9] = system: NCI-H522 lung
[10] = system: NCI-H23 lung
[11] = system: A549 NSCLC
[12] = system: HOP-62 NSCLC
[13] = system: NCI-H226 lung
[14] = system: TK-10 renal
[15] = system: T-47D breast
[16] = system: HCT-15 colon
[17] = system: SK-OV-3 ovarian
[18] = system: OVCAR-4 ovarian
[19] = system: CCRF-CEM leukemia
[20] = system: K-562 leukemia
[21] = system: MALME-3M melanoma
[22] = system: M14 melanoma
[23] = system: DU-145 prostate
[24] = system: NCI/ADR-RES ovarian
[25] = system: UACC-257 melanoma
[26] = system: SR leukemia
[27] = system: KM12 colon

O=C(/C=C/c1ccccc1)c1ccc(O)c(CN2CCN(c3cc4c(cc3F)c(=O)c(C(=O)O)cn4C3CC3)CC2)c1
6.37 µM: TGI [8]
> 100 µM: TGI [1] | TGI [3] | TGI [5] | TGI [6] | TGI [7] | TGI [9] | TGI [11] | TGI [12] | TGI [13] | TGI [14] | TGI [15] | TGI [16] | TGI [17] | TGI [18] | TGI [19] | TGI [20] | TGI [22] | TGI [23] | TGI [24] | TGI [25] | TGI [26]
active: GI50 [8] 0.275 µM | GI50 [20] 0.278 µM
16.9 µM: TGI [10]
21 µM: TGI [27]
inactive: GI50 [2] 0.989 µM | GI50 [3] 3.66 µM | GI50 [4] 2.05 µM | GI50 [5] 2.28 µM | GI50 [6] 1.91 µM | GI50 [7] 2.42 µM | GI50 [9] 2.42 µM | GI50 [10] 2.2 µM | GI50 [11] 3.17 µM | GI50 [12] 3.22 µM | GI50 [13] 3.54 µM | GI50 [14] 6.37 µM | GI50 [15] 1.77 µM | GI50 [16] 2.64 µM | GI50 [17] 2.77 µM | GI50 [18] 16.7 µM | GI50 [19] 0.598 µM | GI50 [21] 0.769 µM | GI50 [22] 1 µM | GI50 [23] 1.53 µM | GI50 [24] 7.86 µM | GI50 [25] 1.91 µM | GI50 [26] 0.807 µM | GI50 [27] 1.69 µM
26.1 µM: TGI [4]
26.3 µM: TGI [2]
15.6 µM: TGI [21]
